These results are taken from US20260325533A1, “CDK INHIBITOR COMPOUNDS” (ALEKSIA THERAPEUTICS, INC., priority 2023, published 2026).

One assay addresses CDK2/CCNE1 (Homo sapiens, UniProt P24941). The assay can be described thus: CDK2 homogeneous time-resolved fluorescence (HTRF) kinase assay. Format: biochemical. The conditions noted are these: CDK2/CCNE. The gist of the method: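 Compounds were titrated 11-point, half-log from typically 10 μM against 3 nM CDK2/cyclin E1 at 1 mM ATP, with a 20 min enzyme preincubation. Phosphorylation of 50 nM ULight-4E-BP1 peptide over 60 min at 23 °C was detected by europium anti-phospho antibody TR-FRET.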
For orientation: TR-FRET usually uses a lanthanide donor and a delayed reading to cut background.

The target in another assay is CDK1/CCNB1 (Homo sapiens, UniProt P06493). Kind of assay: CDK1 homogeneous time-resolved fluorescence (HTRF) kinase assay. Format: biochemical. The conditions noted are these: CDK1/CCNB. The gist of the method:
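HTRF assay with 0.5 nM CDK1/CCNB1, 1 mM ATP, 50 nM ULight-eIF4E-BP1 (Thr37/46) peptide; compound preincubated 20 min, reaction 60 min at 23 °C, EDTA stop, Eu-anti-phospho antibody detection. 11-point half-log titration from 10 μM, 1% DMSO; IC50 from 665 nm or 665/615 signal.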

Setting [1] is: 25-250 nM marked x, read-out: CDK2/CCNE IC50 25-250 nM.
[2] abbreviates: >250 nM marked x, read-out: CDK1/CCNB IC50 >250 nM.
Where [3] appears, read: <25 nM, read-out: CDK2/CCNE IC50 <25 nM.
The mark [4] stands for this setting: >250 nM marked x, read-out: CDK2/CCNE IC50 >250 nM.

The structures appear in SMILES notation. Read-outs that look alike come from different tables or passages of the source.

Sequence of CDK1/CCNB1 (P06493 whole entry): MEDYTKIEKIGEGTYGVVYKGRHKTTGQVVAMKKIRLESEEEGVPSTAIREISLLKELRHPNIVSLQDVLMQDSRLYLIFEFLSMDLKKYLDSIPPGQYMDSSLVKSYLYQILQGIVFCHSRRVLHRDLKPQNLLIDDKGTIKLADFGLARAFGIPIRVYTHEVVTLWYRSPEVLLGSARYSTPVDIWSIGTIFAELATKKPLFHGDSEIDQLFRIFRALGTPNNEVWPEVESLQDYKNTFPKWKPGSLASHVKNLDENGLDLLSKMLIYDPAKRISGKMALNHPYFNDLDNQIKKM
Sequence of CDK1/CCNB1 (P14635 whole entry partner): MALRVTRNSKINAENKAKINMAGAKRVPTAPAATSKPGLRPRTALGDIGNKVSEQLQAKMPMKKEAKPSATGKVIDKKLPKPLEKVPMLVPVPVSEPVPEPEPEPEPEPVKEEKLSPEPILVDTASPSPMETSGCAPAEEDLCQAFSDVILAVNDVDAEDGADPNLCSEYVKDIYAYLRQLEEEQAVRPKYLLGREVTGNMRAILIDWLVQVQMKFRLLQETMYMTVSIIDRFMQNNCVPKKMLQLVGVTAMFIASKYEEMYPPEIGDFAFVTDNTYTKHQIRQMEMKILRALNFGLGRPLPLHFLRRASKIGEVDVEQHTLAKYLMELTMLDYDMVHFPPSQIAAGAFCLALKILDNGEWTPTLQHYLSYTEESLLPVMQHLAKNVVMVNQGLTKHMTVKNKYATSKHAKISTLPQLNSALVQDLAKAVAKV

In the case of `C=CS(=O)(=O)N1CCC(Nc2cc3c(-c4cnn(C)c4)nccc3cn2)CC1` [Ex 108, 5-(1-methyl-1H-pyrazol-4-yl)-N-(1-(vinylsulfonyl)piperidin-4-yl)-2,6-naphthyridin-3-amine], the IC50 at CDK2/CCNE1 (setting [1]) was 0.025 to 0.25 µM; on CDK1/CCNB1 (setting [2]), > 0.25 µM.

Consider `C=CS(=O)(=O)N1CCC(Nc2cc3c(-c4ccc(C#N)nc4)nccc3cn2)CC1` [Ex 109, 5-(7-((1-(vinylsulfonyl)piperidin-4-yl)amino)-2,6-naphthyridin-1-yl)picolinonitrile], for which the IC50 on CDK2/CCNE1 (setting [1]) was 0.025 to 0.25 µM; at CDK1/CCNB1 (setting [2]), > 0.25 µM.

In the case of `N#CC1CCN(c2nccc3cnc(Nc4ccc(C(=O)ON5C(=O)CCC5=O)cc4)cc23)CC1` [Ex 110, 2,5-dioxopyrrolidin-1-yl 4-((5-(4-cyanopiperidin-1-yl)-2,6-naphthyridin-3-yl)amino)benzoate], the IC50 was < 0.025 µM on CDK2/CCNE1 (setting [3]) and < 0.025 µM on CDK1/CCNB1 (<25 nM, read-out: CDK1/CCNB IC50 <25 nM).

For `N#CC1CCN(c2nccc3cnc(Nc4cccc(C(=O)ON5C(=O)CCC5=O)c4)cc23)CC1` [Ex 111, 2,5-dioxopyrrolidin-1-yl 3-((5-(4-cyanopiperidin-1-yl)-2,6-naphthyridin-3-yl)amino)benzoate], the IC50 on CDK2/CCNE1 (setting [1]) is 0.025 to 0.25 µM; at CDK1/CCNB1 (setting [2]), > 0.25 µM.

Consider `CS(=O)(=O)N1CCC(Nc2cc3c(N4CCCCC4)nc(C(F)F)cc3cn2)CC1` [Ex 118, 7-(difluoromethyl)-N-(1-(methylsulfonyl)piperidin-4-yl)-5-(piperidin-1-yl)-2,6-naphthyridin-3-amine], for which the IC50 was 0.025 to 0.25 µM at CDK2/CCNE1 (setting [1]) and > 0.25 µM on CDK1/CCNB1 (setting [2]).

On to `CS(=O)(=O)N1CCC(Nc2cc3c(N4CCCCC4)nc(CCl)cc3cn2)CC1` [Ex 119, 7-(chloromethyl)-N-(1-(methylsulfonyl)piperidin-4-yl)-5-(piperidin-1-yl)-2,6-naphthyridin-3-amine], for which the IC50 at CDK2/CCNE1 (setting [4]) and on CDK1/CCNB1 (setting [2]) was > 0.25 µM each time.

On to `Cn1cc(-c2nccc3cnc(Nc4ccc(S(C)(=O)=O)cc4)cc23)nn1` [Ex 125, 5-(1-methyl-1H-1,2,3-triazol-4-yl)-N-(4-(methylsulfonyl)phenyl)-2,6-naphthyridin-3-amine], for which the IC50 on CDK2/CCNE1 (setting [1]) is 0.025 to 0.25 µM; at CDK1/CCNB1 (setting [2]), > 0.25 µM.

As to `CS(=O)(=O)c1ccc(Nc2cc3c(-c4ccc5[nH]cnc5c4)nccc3cn2)cc1` [Ex 126, 5-(1H-benzo[d]imidazol-5-yl)-N-(4-(methylsulfonyl)phenyl)-2,6-naphthyridin-3-amine], the IC50 on CDK2/CCNE1 (setting [1]) was 0.025 to 0.25 µM; on CDK1/CCNB1 (setting [2]), > 0.25 µM.

With `N#CC1CCN(c2nccc3cnc(Nc4ccc(C=O)cc4)cc23)CC1` [Ex 128, 1-(7-((4-formylphenyl)amino)-2,6-naphthyridin-1-yl)piperidine-4-carbonitrile], the values for the IC50 at CDK2/CCNE1 (setting [1]) and at CDK1/CCNB1 (setting [2]) were 0.025 to 0.25 µM and > 0.25 µM, respectively.

As for `N#CC1CCN(c2nccc3cnc(Nc4ccc(CO)cc4)cc23)CC1` [Ex 132, 1-(7-((4-(hydroxymethyl)phenyl)amino)-2,6-naphthyridin-1-yl)piperidine-4-carbonitrile], the IC50 at CDK2/CCNE1 (setting [1]) is 0.025 to 0.25 µM; at CDK1/CCNB1 (setting [2]), > 0.25 µM.

For the molecule `N#CC1CCN(c2nccc3cnc(Nc4ccc(CCO)cc4)cc23)CC1` [Ex 133, 1-(7-((4-(2-hydroxyethyl)phenyl)amino)-2,6-naphthyridin-1-yl)piperidine-4-carbonitrile], the IC50 on CDK2/CCNE1 (setting [1]) was 0.025 to 0.25 µM; at CDK1/CCNB1 (setting [2]), > 0.25 µM.

On to `N#CC1CCN(c2nccc3cnc(Nc4cccc(CO)c4)cc23)CC1` [Ex 134, 1-(7-((3-(hydroxymethyl)phenyl)amino)-2,6-naphthyridin-1-yl)piperidine-4-carbonitrile], for which the IC50 was 0.025 to 0.25 µM at CDK2/CCNE1 (setting [1]) and > 0.25 µM at CDK1/CCNB1 (setting [2]).

As to `CS(=O)(=O)c1ccc(Nc2cc3c(-c4cc5cc[nH]c5cn4)nccc3cn2)cc1` [Ex 135, N-(4-(methylsulfonyl)phenyl)-5-(1H-pyrrolo[2,3-c]pyridin-5-yl)-2,6-naphthyridin-3-amine], the values for the IC50 on CDK2/CCNE1 (setting [1]) and at CDK1/CCNB1 (setting [2]) were 0.025 to 0.25 µM and > 0.25 µM, respectively.

Consider `N#CC1CCN(c2nccc3cnc(Nc4cccc(C=O)c4)cc23)CC1` [Ex 140, 1-(7-((3-formylphenyl)amino)-2,6-naphthyridin-1-yl)piperidine-4-carbonitrile], for which the IC50 on CDK2/CCNE1 (setting [1]) is 0.025 to 0.25 µM; at CDK1/CCNB1 (setting [2]) it was > 0.25 µM.

Take `N#CC1CCN(c2nccc3cnc(Nc4cccc(CCO)c4)cc23)CC1` [Ex 143, 1-(7-((3-(2-hydroxyethyl)phenyl)amino)-2,6-naphthyridin-1-yl)piperidine-4-carbonitrile]: the IC50 at CDK2/CCNE1 (setting [1]) is 0.025 to 0.25 µM; at CDK1/CCNB1 (setting [2]), > 0.25 µM.

`Cn1nncc1-c1nccc2cnc(Nc3ccc(S(C)(=O)=O)cc3)cc12` [Ex 144, 5-(1-methyl-1H-1,2,3-triazol-5-yl)-N-(4-(methylsulfonyl)phenyl)-2,6-naphthyridin-3-amine]: the IC50 on CDK2/CCNE1 (setting [4]) and at CDK1/CCNB1 (setting [2]) was > 0.25 µM each time.

With `CN1CCC(c2nccc3cnc(Nc4ccc(S(C)(=O)=O)cc4)cc23)CC1` [Ex 151, 5-(1-methylpiperidin-4-yl)-N-(4-(methylsulfonyl)phenyl)-2,6-naphthyridin-3-amine], the figures for the IC50 at CDK2/CCNE1 (setting [1]) and at CDK1/CCNB1 (setting [2]) were 0.025 to 0.25 µM and > 0.25 µM, respectively.

Regarding `CCN1CCC(c2nccc3cnc(Nc4ccc(S(C)(=O)=O)cc4)cc23)CC1` [Ex 152, 5-(1-ethylpiperidin-4-yl)-N-(4-(methylsulfonyl)phenyl)-2,6-naphthyridin-3-amine], the figures for the IC50 at CDK2/CCNE1 (setting [1]) and at CDK1/CCNB1 (setting [2]) were 0.025 to 0.25 µM and > 0.25 µM, respectively.

As for `CS(=O)(=O)c1ccc(Nc2cc3c(C4CCN(CC5CCCCC5)CC4)nccc3cn2)cc1` [Ex 153, 5-(1-(cyclohexylmethyl)piperidin-4-yl)-N-(4-(methylsulfonyl)phenyl)-2,6-naphthyridin-3-amine], the IC50 on CDK2/CCNE1 (setting [4]) and at CDK1/CCNB1 (setting [2]) was > 0.25 µM throughout.

Regarding `CC(=O)N1CCC(c2nccc3cnc(Nc4ccc(S(C)(=O)=O)cc4)cc23)CC1` [Ex 154, 1-(4-(7-((4-(methylsulfonyl)phenyl)amino)-2,6-naphthyridin-1-yl)piperidin-1-yl)ethan-1-one], the IC50 at CDK2/CCNE1 (setting [4]) and on CDK1/CCNB1 (setting [2]) was > 0.25 µM each time.

As to `C=CC(=O)N1CCC(c2nccc3cnc(Nc4ccc(S(C)(=O)=O)cc4)cc23)CC1` [Ex 155, 1-(4-(7-((4-(methylsulfonyl)phenyl)amino)-2,6-naphthyridin-1-yl)piperidin-1-yl)prop-2-en-1-one], the IC50 on CDK2/CCNE1 (setting [4]) and at CDK1/CCNB1 (setting [2]) was > 0.25 µM each time.

In the case of `C=CS(=O)(=O)c1ccc(Nc2cc3c(-c4ccc(O)cc4)nccc3cn2)cc1` [Ex 157, 4-(7-((4-(vinylsulfonyl)phenyl)amino)-2,6-naphthyridin-1-yl)phenol], the results for the IC50 at CDK2/CCNE1 (setting [1]) and at CDK1/CCNB1 (setting [2]) were 0.025 to 0.25 µM and > 0.25 µM, respectively.

With `Cc1cc2nn(C)cc2cc1-c1nccc2cnc(NC3CCN(S(C)(=O)=O)CC3)cc12` [Ex 159, 5-(2,6-dimethyl-2H-indazol-5-yl)-N-(1-(methylsulfonyl)piperidin-4-yl)-2,6-naphthyridin-3-amine], the IC50 was 0.025 to 0.25 µM at CDK2/CCNE1 (setting [1]) and > 0.25 µM on CDK1/CCNB1 (setting [2]).

With `C=CS(=O)(=O)c1ccc(Nc2cc3c(-c4cccc(C(F)(F)F)c4)nccc3cn2)cc1` [Ex 160, 5-(3-(trifluoromethyl)phenyl)-N-(4-(vinylsulfonyl)phenyl)-2,6-naphthyridin-3-amine], the IC50 is 0.025 to 0.25 µM on CDK2/CCNE1 (setting [1]) and > 0.25 µM at CDK1/CCNB1 (setting [2]).

For `C=CS(=O)(=O)c1ccc(Nc2cc3c(-c4cccc(OC(F)(F)F)c4)nccc3cn2)cc1` [Ex 161, 5-(3-(trifluoromethoxy)phenyl)-N-(4-(vinylsulfonyl)phenyl)-2,6-naphthyridin-3-amine], the IC50 on CDK2/CCNE1 (setting [4]) and on CDK1/CCNB1 (setting [2]) was > 0.25 µM in each case.

For the molecule `CS(=O)(=O)c1ccc(Nc2cc3c(-c4ccc5c(c4)C4(CC4)C(=O)N5)nccc3cn2)cc1` [Ex 163, 5'-(7-((4-(methylsulfonyl)phenyl)amino)-2,6-naphthyridin-1-yl)spiro[cyclopropane-1,3'-indolin]-2'-one], the IC50 at CDK2/CCNE1 (setting [1]) was 0.025 to 0.25 µM; at CDK1/CCNB1 (setting [2]), > 0.25 µM.

Turning to `Cc1c(-c2nccc3cnc(Nc4ccc(S(C)(=O)=O)cc4)cc23)ccc2c1cnn2C1CCOCC1` [Ex 164, 5-(4-methyl-1-(tetrahydro-2H-pyran-4-yl)-1H-indazol-5-yl)-N-(4-(methylsulfonyl)phenyl)-2,6-naphthyridin-3-amine], the IC50 is 0.025 to 0.25 µM at CDK2/CCNE1 (setting [1]) and > 0.25 µM at CDK1/CCNB1 (setting [2]).

In the case of `Cc1c(-c2nccc3cnc(Nc4ccc(S(C)(=O)=O)cc4)cc23)ccc2nn(C3CCOCC3)cc12` [Ex 165, 5-(4-methyl-2-(tetrahydro-2H-pyran-4-yl)-2H-indazol-5-yl)-N-(4-(methylsulfonyl)phenyl)-2,6-naphthyridin-3-amine], the IC50 was 0.025 to 0.25 µM on CDK2/CCNE1 (setting [1]) and > 0.25 µM on CDK1/CCNB1 (setting [2]).

As to `CS(=O)(=O)c1ccc(Nc2cc3c(C#C[C@H]4CC[C@H](C(N)=O)CC4)nccc3cn2)cc1` [Ex 168, (1r,4r)-4-((7-((4-(methylsulfonyl)phenyl)amino)-2,6-naphthyridin-1-yl)ethynyl)cyclohexane-1-carboxamide], the IC50 on CDK2/CCNE1 (setting [3]) was < 0.025 µM; on CDK1/CCNB1 (25-250 nM marked x, read-out: CDK1/CCNB IC50 25-250 nM), 0.025 to 0.25 µM.

With `CC(C)N1CCC(c2nccc3cnc(Nc4ccc(S(C)(=O)=O)cc4)cc23)CC1` [Ex 170, 5-(1-isopropylpiperidin-4-yl)-N-(4-(methylsulfonyl)phenyl)-2,6-naphthyridin-3-amine], the IC50 at CDK2/CCNE1 (setting [4]) and on CDK1/CCNB1 (setting [2]) was > 0.25 µM in each case.
